Laboratory results from ChEMBL document CHEMBL5260802, “Discovery of Novel Allosteric HCV NS5B Inhibitors. 2. Lactam-Containing Thiophene Carboxylates” (ACS Med Chem Lett, 2017).

Key:
Hepatitis C virus [1] = assay: Antiviral activity against Hepatitis C virus subtype 1b infected in Huh-7 cells transfected with HCV subgenomic replicon for NS5B polymerase assessed as inhibition of viral replication measured upto 96 hrs by luciferase reporter gene assay; format: functional, organism-based, Hepacivirus hominis; conditions: for IC50: Huh-7, 96 h; for IC90: Huh-7, time <= 96 hrs
Hepatitis C virus [2] = assay: Antiviral activity against Hepatitis C virus subtype 1b infected in Huh-7 cells transfected with HCV subgenomic replicon for NS5B polymerase assessed as inhibition of viral replication measured upto 96 hrs in presence of 40% of human serum by luciferase reporter gene assay; format: functional, organism-based, Hepacivirus hominis; conditions: Huh-7, 96 h
[3] = Cytotoxicity against human Huh-7 cells transfected with HCV subgenomic replicon for NS5B polymerase assessed as reduction in cell viability; format: toxicity, cell-based
[4] = Protein binding in rat plasma at 1 uM incubated for 6 hrs by LC-MS/MS based rapid equilibrium dialysis method; format: ADME, cell-free; conditions: read-out: PPB (converted)
[5] = AUC (0 to infinity) in Sprague-Dawley rat at 1 mg/kg,iv and measured after 72 hrs by LC/MS/MS analysis; format: ADME, organism-based; design: time 72 hrs, dose 1 mg/kg, route iv; conditions: in vivo; for AUC(0-inf): Sprague-Dawley
[6] = Unbound AUC (0 to infinity) in Sprague-Dawley rat at 1 mg/kg,iv and measured after 72 hrs by LC/MS/MS analysis; format: ADME, organism-based; conditions: in vivo
[7] = Unbound clearance in Sprague-Dawley rat at 1 mg/kg,iv and measured after 72 hrs by LC/MS/MS analysis; format: ADME, organism-based; conditions: in vivo
[8] = Half life in Sprague-Dawley rat at 1 mg/kg,iv and measured after 72 hrs by LC/MS/MS analysis; format: ADME, organism-based; conditions: in vivo
[9] = Volume of distribution at steady state in Sprague-Dawley rat at 1 mg/kg,iv and measured after 72 hrs by LC/MS/MS analysis; format: ADME, organism-based; conditions: in vivo, read-out: Vdss
[10] = AUC (0 to infinity) in Sprague-Dawley rat at 3 mg/kg,po and measured after 72 hrs by LC/MS/MS analysis; format: ADME, organism-based; design: time 72 hrs, dose 3 mg/kg, route po; conditions: in vivo
[11] = Unbound AUC (0 to infinity) in Sprague-Dawley rat at 3 mg/kg,po and measured after 72 hrs by LC/MS/MS analysis; format: ADME, organism-based; conditions: in vivo
[12] = Cmax in Sprague-Dawley rat at 3 mg/kg,po and measured after 72 hrs by LC/MS/MS analysis; format: ADME, organism-based; design: time 72 hrs, dose 3 mg/kg, route po; conditions: in vivo
[13] = Oral bioavailability in Sprague-Dawley rat at 3 mg/kg and measured after 72 hrs by LC/MS/MS analysis; format: ADME, organism-based; conditions: in vivo
[14] = Clearance in Sprague-Dawley rat at 1 mg/kg,iv and measured after 72 hrs by LC/MS/MS analysis; format: ADME, organism-based; conditions: in vivo
[15] = Half life in Sprague-Dawley rat at 3 mg/kg,po and measured after 72 hrs by LC/MS/MS analysis; format: ADME, organism-based; conditions: in vivo
[16] = target: T1, Nuclear receptor subfamily 1 group I member 2 (Homo sapiens, UniProt O75469); assay: Activation of human PXR expressed in human DPX2 co-expressing luciferase reporter gene incubated for 24 hrs by luciferase assay; format: cell-based
T1 sequence (O75469 whole entry): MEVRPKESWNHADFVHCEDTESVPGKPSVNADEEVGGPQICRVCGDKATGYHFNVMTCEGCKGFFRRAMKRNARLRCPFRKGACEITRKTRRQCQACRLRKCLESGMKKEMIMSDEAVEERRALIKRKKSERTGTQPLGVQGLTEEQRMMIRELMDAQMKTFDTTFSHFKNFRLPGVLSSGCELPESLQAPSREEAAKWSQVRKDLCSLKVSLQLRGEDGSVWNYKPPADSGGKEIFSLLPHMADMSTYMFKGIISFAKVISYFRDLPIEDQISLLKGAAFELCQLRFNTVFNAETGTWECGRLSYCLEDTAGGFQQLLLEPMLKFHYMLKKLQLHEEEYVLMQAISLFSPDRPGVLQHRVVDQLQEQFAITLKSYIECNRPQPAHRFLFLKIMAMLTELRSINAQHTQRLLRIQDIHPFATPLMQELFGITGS

PXR [17] = target: T2, PXR (Homo sapiens, UniProt O75469); assay: Activation of human PXR expressed in human DPX2 co-expressing luciferase reporter gene assessed as maximum efficacy incubated for 24 hrs by luciferase assay relative to control; format: cell-based; conditions: DPX2 cells expressing human PXR and luciferase reporter gene
T2 sequence (O75469 whole entry): T1 sequence (O75469 whole entry)

[18] = AUC (0 to infinity) in Sprague-Dawley rat at 0.5 mg/kg,iv and measured after 72 hrs by LC/MS/MS analysis; format: ADME, organism-based; design: time 72 hrs, dose 0.5 mg/kg, route iv; conditions: in vivo
[19] = Unbound AUC (0 to infinity) in Sprague-Dawley rat at 0.5 mg/kg,iv and measured after 72 hrs by LC/MS/MS analysis; format: ADME, organism-based; conditions: in vivo
[20] = Unbound clearance in Sprague-Dawley rat at 0.5 mg/kg,iv and measured after 72 hrs by LC/MS/MS analysis; format: ADME, organism-based; conditions: in vivo
[21] = Half life in Sprague-Dawley rat at 0.5 mg/kg,iv and measured after 72 hrs by LC/MS/MS analysis; format: ADME, organism-based; conditions: in vivo
[22] = Volume of distribution at steady state in Sprague-Dawley rat at 0.5 mg/kg,iv and measured after 72 hrs by LC/MS/MS analysis; format: ADME, organism-based; conditions: in vivo, read-out: Vdss
[23] = AUC (0 to infinity) in Sprague-Dawley rat at 1.5 mg/kg,po and measured after 72 hrs by LC/MS/MS analysis; format: ADME, organism-based; design: dose 1.5 mg/kg, time 72 hrs, route po; conditions: in vivo
[24] = Unbound AUC (0 to infinity) in Sprague-Dawley rat at 1.5 mg/kg,po and measured after 72 hrs by LC/MS/MS analysis; format: ADME, organism-based; conditions: in vivo
[25] = Cmax in Sprague-Dawley rat at 1.5 mg/kg,po and measured after 72 hrs by LC/MS/MS analysis; format: ADME, organism-based; design: dose 1.5 mg/kg, time 72 hrs, route po; conditions: in vivo
[26] = Oral bioavailability in Sprague-Dawley rat at 1.5 mg/kg and measured after 72 hrs by LC/MS/MS analysis; format: ADME, organism-based; conditions: in vivo
[27] = Half life in Sprague-Dawley rat at 1.5 mg/kg,po and measured after 72 hrs by LC/MS/MS analysis; format: ADME, organism-based; conditions: in vivo
[28] = Protein binding in human plasma at 1 uM incubated for 6 hrs by LC-MS/MS based rapid equilibrium dialysis method; format: ADME, cell-free; conditions: read-out: PPB
[29] = Microsomal stability in rat liver microsomes assessed as parent compound remaining at 1 uM and measured after 30 mins in presence of NADPH by LC/MS/MS analysis; format: ADME, Microsome; conditions: 0.5 h
[30] = Microsomal stability in human liver microsomes assessed as parent compound remaining at 1 uM and measured after 30 mins in presence of NADPH by LC/MS/MS analysis; format: ADME, Microsome; conditions: 0.5 h
Cytochrome P450 3A4 = Cytochrome P450 3A4 (Homo sapiens, UniProt P08684); assay: Inhibition of CYP3A4 in human liver microsomes incubated for 10 mins in presence of NADPH by LC/MS/MS analysis; format: ADME, Microsome
Cytochrome P450 2D6 = Cytochrome P450 2D6 (Homo sapiens, UniProt P10635); assay: Inhibition of CYP2D6 in human liver microsomes incubated for 10 mins in presence of NADPH by LC/MS/MS analysis; format: ADME, Microsome
Cytochrome P450 2C9 = Cytochrome P450 2C9 (Homo sapiens, UniProt P11712); assay: Inhibition of CYP2C9 in human liver microsomes incubated for 10 mins in presence of NADPH by LC/MS/MS analysis; format: ADME, Microsome
PXR [31] = target: T2, PXR; assay: Activation of human PXR expressed in human DPX2 co-expressing luciferase reporter gene assessed as fold increase incubated for 24 hrs by luciferase assay relative to control; format: cell-based; conditions: DPX2 cells expressing human PXR and luciferase reporter gene, read-out: FC

Sequence of Cytochrome P450 2D6 (P10635 whole entry): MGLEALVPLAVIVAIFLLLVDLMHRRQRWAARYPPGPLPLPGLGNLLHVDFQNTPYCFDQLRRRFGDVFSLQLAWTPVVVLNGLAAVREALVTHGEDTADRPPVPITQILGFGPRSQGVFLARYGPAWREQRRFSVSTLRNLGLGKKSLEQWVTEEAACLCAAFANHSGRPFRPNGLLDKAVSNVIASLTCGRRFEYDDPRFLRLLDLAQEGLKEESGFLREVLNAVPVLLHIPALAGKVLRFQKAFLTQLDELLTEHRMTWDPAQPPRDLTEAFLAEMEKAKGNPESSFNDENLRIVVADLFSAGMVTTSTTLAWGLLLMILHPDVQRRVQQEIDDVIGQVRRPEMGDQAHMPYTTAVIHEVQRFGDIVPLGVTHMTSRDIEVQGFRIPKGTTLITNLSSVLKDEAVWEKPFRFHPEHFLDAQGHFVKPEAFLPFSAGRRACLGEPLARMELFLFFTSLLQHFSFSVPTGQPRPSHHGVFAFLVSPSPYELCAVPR
Sequence of Cytochrome P450 3A4 (P08684 whole entry): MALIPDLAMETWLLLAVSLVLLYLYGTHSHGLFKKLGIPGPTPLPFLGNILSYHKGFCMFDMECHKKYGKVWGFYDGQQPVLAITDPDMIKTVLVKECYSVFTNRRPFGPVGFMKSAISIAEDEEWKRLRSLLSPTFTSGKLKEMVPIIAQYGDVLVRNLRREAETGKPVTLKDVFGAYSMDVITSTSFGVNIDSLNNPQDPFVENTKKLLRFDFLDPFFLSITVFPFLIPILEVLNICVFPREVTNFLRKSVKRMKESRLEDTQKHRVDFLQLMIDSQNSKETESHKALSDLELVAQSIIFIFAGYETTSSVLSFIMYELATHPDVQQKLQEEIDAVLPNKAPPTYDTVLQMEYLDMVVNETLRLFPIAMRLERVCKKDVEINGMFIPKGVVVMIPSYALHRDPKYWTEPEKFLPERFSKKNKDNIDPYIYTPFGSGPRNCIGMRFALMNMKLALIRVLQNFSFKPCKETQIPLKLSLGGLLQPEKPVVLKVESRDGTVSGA
Sequence of Cytochrome P450 2C9 (P11712 whole entry): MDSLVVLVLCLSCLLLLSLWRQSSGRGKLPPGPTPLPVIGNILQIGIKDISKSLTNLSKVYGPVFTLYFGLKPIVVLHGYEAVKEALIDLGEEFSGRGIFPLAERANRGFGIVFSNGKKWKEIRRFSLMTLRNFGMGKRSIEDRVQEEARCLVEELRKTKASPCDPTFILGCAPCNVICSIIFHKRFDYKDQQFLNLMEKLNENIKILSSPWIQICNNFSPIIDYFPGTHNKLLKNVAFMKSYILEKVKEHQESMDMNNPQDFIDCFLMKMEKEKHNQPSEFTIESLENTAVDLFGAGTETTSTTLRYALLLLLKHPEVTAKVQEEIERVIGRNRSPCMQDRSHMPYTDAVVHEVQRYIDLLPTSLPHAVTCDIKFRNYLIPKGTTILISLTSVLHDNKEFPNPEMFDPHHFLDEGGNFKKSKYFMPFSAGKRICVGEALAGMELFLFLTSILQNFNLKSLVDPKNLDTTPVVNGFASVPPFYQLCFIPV

Row | Structure (SMILES) | IC50 (Hepatitis C virus [1]) | IC90 (Hepatitis C virus [1]) | IC50 (Hepatitis C virus [2]) | CC50 [3] | fraction unbound at 6 h, 1 µM [4] | fAUC [6] | CL free [7] | half-life [8] | Vd [9] | AUC(0-inf) [10] | fAUC [11] | Cmax [12] | bioavailability [13] | EC50 [16] | Emax at 24 h (PXR [17]) | other results
1 | C[C@H](C(=O)N(C)C)N(c1cc(C#CC(C)(C)C)sc1C(=O)O)C(=O)[C@H]1CC[C@H](C)CC1 | 110 nM | 610 nM | 1320 nM | > 20000 nM |  |  |  |  |  |  |  |  |  |  |  | 
2 | C[C@@H](C(=O)N(C)C)N(c1cc(C#CC(C)(C)C)sc1C(=O)O)C(=O)[C@H]1CC[C@H](C)CC1 | 5 nM | 24 nM | 49 nM | > 20000 nM |  |  |  |  |  |  |  |  |  |  |  | 
3 | CC(C)(C)C#Cc1cc(N(CC(=O)N2CCOCC2)C(=O)[C@H]2CC[C@H](C)CC2)c(C(=O)O)s1 | 23 nM | 100 nM | 340 nM | > 20000 nM |  |  |  |  |  |  |  |  |  |  |  | 
4 | CN1CC[C@@H](N(c2cc(C#CC(C)(C)C)sc2C(=O)O)C(=O)[C@H]2CC[C@H](C)CC2)C1=O | 16 nM | 96 nM | 140 nM | > 20000 nM | 0.002 | 3.48 ng·h/mL | 11300 mL/min/kg | 2.73 h | 1.93 L/kg | 3320 ng·h/mL | 6.64 ng·h/mL | 1310 ng/mL | 64% |  |  | AUC ([5]; 72 h): 1740 ng·h/mL
5 | CN1CC[C@H](N(c2cc(C#CC(C)(C)C)sc2C(=O)O)C(=O)[C@H]2CC[C@H](C)CC2)C1=O | 4 nM | 13 nM | 40 nM | > 20000 nM | 0.019 | 4.35 ng·h/mL | 3880 mL/min/kg | 3.07 h | 6.04 L/kg | 176 ng·h/mL | 3.34 ng·h/mL | 119 ng/mL | 26% |  |  | AUC(0-inf) [5]: 229 ng·h/mL; clearance [14]: 73.7 mL/min/kg; half-life [15]: 4.66 h
6 | CN1CCCC[C@@H](N(c2cc(C#CC(C)(C)C)sc2C(=O)O)C(=O)[C@H]2CC[C@H](C)CC2)C1=O | 29 nM | 63 nM | 156 nM | > 20000 nM | 0.002 | 2.26 ng·h/mL | 7950 mL/min/kg | 2.79 h | 1.05 L/kg | 3530 ng·h/mL | 7.06 ng·h/mL | 589 ng/mL | 122% | > 30000 nM | 16% | AUC(0-inf) [5]: 1130 ng·h/mL; clearance [14]: 15.9 mL/min/kg; half-life [15]: 4.31 h
7 | CN1CCC[C@H](N(c2cc(C#CC(C)(C)C)sc2C(=O)O)C(=O)[C@H]2CC[C@H](C)CC2)C1=O | 3 nM | 8 nM | 24 nM | > 20000 nM | 0.011 |  |  |  |  |  |  |  |  | 17300 nM | 63% | AUC [18]: 8770 ng·h/mL; fAUC [19]: 96.5 ng·h/mL; CL free [20]: 755 mL/min/kg; half-life [21]: 6.68 h; Vd [22]: 1.17 L/kg; AUC(0-inf) [23]: 6390 ng·h/mL; fAUC [24]: 70.3 ng·h/mL; Cmax [25]: 751 ng/mL; bioavailability [26]: 24%; half-life [27]: 4.8 h; fraction unbound at 6 h, 1 µM [28]: 0.01; Stability [29]: Stable; Stability [30]: Stable; IC50 (Cytochrome P450 3A4): > 30000 nM; IC50 (Cytochrome P450 2D6): > 30000 nM; IC50 (Cytochrome P450 2C9): > 30000 nM; fold induction at 24 h (PXR [31]): 15.1
8 | CN1CCC[C@@H](N(c2cc(C#CC(C)(C)C)sc2C(=O)O)C(=O)[C@H]2CC[C@H](C)CC2)C1=O | 10 nM | 44 nM | 105 nM | > 20000 nM | 0.0004 |  |  |  |  |  |  |  |  | 20400 nM | 28% | AUC [18]: 25400 ng·h/mL; fAUC [19]: 10.2 ng·h/mL; CL free [20]: 2980 mL/min/kg; half-life [21]: 5.57 h; Vd [22]: 0.221 L/kg; AUC(0-inf) [23]: 24400 ng·h/mL; fAUC [24]: 9.76 ng·h/mL; Cmax [25]: 2540 ng/mL; bioavailability [26]: 32%; half-life [27]: 6.13 h; fold induction at 24 h (PXR [31]): 7.3
9 | CC(C)(C)C#Cc1cc(N(C(=O)[C@H]2CC[C@H](C)CC2)[C@H]2CC[C@H](O)CC2)c(C(=O)O)s1 [LOMIBUVIR] | 25 nM | 97 nM | 203 nM | > 20000 nM |  |  |  |  |  |  |  |  |  |  |  | 
